Results from patent USRE39682E1, “Farnesyl derivatives and pharmaceutical compositions containing them” (Ramot at Tel Aviv University Ltd., priority 1993, dated 2007).

Key:
[1] = system: HEC1A, rat1 and ras-transformed rat1 cells; assay: In vitro toxicity: MTT and trypan blue staining; assay type: cell-based; settings: human (HEC1A), rat (rat1, ras-transformed rat1), 50 μM
Excerpt: Cells were counted following 3, 7 and 10 days of beginning of treatments with drugs. For counting, cells were detached from plates with trypsin/EDTA, and collected by a low speed spin in the presence of DMEM/10% FCS. The pelleted cells were resuspended in a small volume of DMEM/10% FCS and counted under the microscope. Viability of cells was estimated by staining with (3-(4,5-dimethylthiosol-2-yl)-2,5-diphenyltetrazolium bromide (MTT) and microscopic examination of the stained and unstained cells, or spectrophotometric estimation (OD490, 590) of the total stain in each well. Non viable cells were estimated by the trypan blue exclusion method.
In order to determine the long term effects of both FTA and FTS on cell survival, a colorometric method using MTT, which stains only live cells, was employed (Mosmen, F. J. Immunol. Meth., 65, 55-63 (1983), and tryptan blue exclusion staining in which only dead cells are stained, were employed. Cells were incubated with 50 μM of either FTA or FTS for a period of up to 5 days in culture. This concentration is 10-30 times the Ki values of FTS and FTA as calculated above. As control served cells incubated in 0.1% DMSO with no drug.

[2] = in vivo; settings: Bulb-C, mouse, in vivo, ip
Procedure: (§1) Seven groups of five mice were used. The mice received a single i.p. dose of FTS in DMSO or the solvent only. Doses used in this experiment ranged from 0.5 mg/kg to 268 mg/kg.

[3] = system: Bulb-C mice; assay: in vivo
Procedure: as §1

[4] = system: Ha-ras-transformed rat1 cells; assay: Transformed phenotype (multi-layered clumps) of ras-transformed rat1 cells; assay type: cell-based, rat; settings: 5 days
Excerpt: The two compounds had no effect on the morphology of the non-transformed cells. (FIG. 9B and 9C).

[5] = system: HEC1A cells; assay: Transformed phenotype (multi-layered clumps) of HEC1A cells; assay type: cell-based, human
Excerpt: HEC1A cells also grow in multi-layered clumps (FIG. 10A).

[6] = system: Erb-B2 transformed 3T3 cells (RB-22); assay: Growth of Erb-B2 transformed cells; assay type: cell-based; settings: 25 μM
Excerpt: (§2) The cell lines employed were rat1, -EJ, which are rat1 cells stably expressing Val- 12 activated human Ha-ras gene (Land H. et al., Nature, 304, 596-602, (1983)); V-raf-3T3, which are 3T3 cells stably expressing the V-raf gene (Xu, N., et al., Proc. Natl. Acad. Sci., 90, 6741-6745); RB-22, which are 3T3 cells stably expressing the rat Erb-B2 gene (Peles, et al., EMBO J., 10, 2077-2086 (1991)) CO6O cells (SV40-CHO), which are CHE cells stably expressing the SV-40 T-antigen gene (Lavi, Proc. Natl. Acad. Sci., 78, 6144-6148 (1981)); human endometrial carcinoma cell line HEC1A, which are cells that express activated K-ras (Enomoto T., Cancer Res., 50, 6139-6145; mouse B16F10 melanoma cells, rat pheochromocytoma PC12 cells, […] cells CHE and COS cells.
(§3) HEC1A, V-raf-3T3 and SV40-CHE cells were grown in Dulbecco's modified Eagle medium (DMEM) containing 10% fetal calf serum (FCS), 4 mM L-glutamine, 10 μg/ml streptomycin and 10 U/ml penicillin. Rat1 and -EJ cells were grown in the same medium except that it was supplemented with 12.5 U/ml nyostatin. RB-22 cells were grown in modified DMEM (1 mM sodium pyruvate, 20 mM sodium bicarbonate)/10% FCS containing 4 mM L-glutamine, […] streptomycin, 10 U/ml penicillin. […]
(§4) The potent PPMTase inhibitor FTS was used to examine selectivity of the drugs towards ras-dependent growth-signaling pathways. […] Cells were counted on day 5 of the experiment.

[7] = system: SV-40 T-antigen transformed CHO cells; assay: Growth of T-antigen transformed cells; assay type: cell-based; settings: 25 μM
Excerpt: as §2, §3, §4

[8] = system: Ha-ras transformed rat1 (EJ) cells; assay: Tumor growth in nude mice implanted with Ha-ras-transformed rat1 cells; assay type: in vivo, nude mice (CD1-Nu)
Procedure: Male nude mice (CD1—Nu) were obtained from the Weizmann Institute of Science, Rehovot, Israel. Groups of 5 to 8 mice (3-4 weeks old, 25±2 gr body weight) were used in each experiment for both; controls and FTS treatment. Cells (Ha-ras transformed rat1 (EJ) cells, 2×10^6 cells in 100 μl PBS) were injected systematically (s.c.). Cell implantation and drug administration began on the same day. The EJ cells were prepared from confluent cultures. Cells were detached with trypsin/EDTA, washed with DMEM/10% FCS followed by 3 times PBS washes. A suspension of 2×10^7 cells/ml was prepared and used for experiment within 15-30 min. of preparation.
FTS was prepared as a stock solution (0.225M) in ethanol. It was diluted just prior to the drug administration with PBS to yield a solution of 1.35 mM FTS, 0.6% ethanol. Under these conditions FTS remained in solution for the period of time required for administration.
Experimental mice received 100 μl of the FTS solution, respectively, daily or every other day. Controls received the appropriate administration of 0.6% ethanol in PBS. Tumor growth was monitored by daily observations and by size measurement using a millimetric caliper (two dimensions of the tumor size were taken usually twice a week).
Data were expressed in terms of tumor size (cm^2) in each mouse as a function of time.
Ha-ras transformed rat1 cells (2×10^6) were implanted beneath the skin of the right hind leg of nude mice. The mice received a systemic s.c. injection of either the solvent (0.6% ethanol in PBS) or FTS, starting on the day of cell implantations. Two sets of experiments were performed. In the one set the mice received 3.6 mg/kg FTS daily. Tumors sizes measured every 3-4 days beginning on day 10 of the experiment. […] Out of the 8 control mice, 6 developed tumors having a size of 4 cm^2 or greater and 2 developed tumors of 2 cm^2 or less. In another set of experiments mice received 1.6 mg/kg FTS every other day.

**Q.** Which “cells stained with trypan blue (dead)” value [1] does the source give for CC(C)=CCC/C(C)=C/CC/C(C)=C/CSc1ccccc1C(=O)O [FTS, (3,7,11-trimethyl-dodeca-2,6,10-trienyl)-2-thiobenzoic acid] here?
**A.** less than 5%

**Q.** And the LD50 at 3 weeks [2]?
**A.** > 100 mg/kg

**Q.** What about the “Number of live mice (3 weeks following injection)” value (from here on “Number of live mice”) ([3]; 0.5 mg/kg single i.p.) of the same molecule?
**A.** 5/5

**Q.** What about the “Number of live mice” value ([3]; 5.0 mg/kg single i.p.) of the same molecule?
**A.** 5/5

**Q.** What about the “Number of live mice” value ([3]; 10.0 mg/kg single i.p.) of the same molecule?
**A.** 5/5

**Q.** What about the survival ([3]; 50 mg/kg or lower single i.p.) of the same molecule?
**A.** all mice survived

**Q.** And the “Number of live mice” value ([3]; 50.0 mg/kg single i.p.)?
**A.** 5/5

**Q.** And the “mice out of 5 died” value ([3]; 134 mg/kg single i.p.)?
**A.** 2

**Q.** What about the “Number of live mice” value ([3]; 134.0 mg/kg single i.p.) of the same molecule?
**A.** 3/5

**Q.** And the “Number of live mice” value ([3]; 268.0 mg/kg single i.p.)?
**A.** 0/5

**Q.** What about the mortality ([3]; highest dose (268 mg/kg) single i.p.) of the same molecule?
**A.** all mice died

**Q.** And the “effect on transformed phenotype” value ([4]; 5 μM, FIG. 9E)?
**A.** reversed the transformed phenotype

**Q.** What about the “effect on transformed phenotype” value ([4]; 10 μM, FIG. 9F) of the same molecule?
**A.** reversed the transformed phenotype

**Q.** What about the “effect on multi-layered clumps formation” value ([5]; 10 μM, FIG. 10B) of the same molecule?
**A.** significant reversal of the multi-layered clumps formation

**Q.** And the “effect on multi-layered clumps formation” value ([5]; 50 μM, FIG. 10C)?
**A.** significant reversal of the multi-layered clumps formation

**Q.** What about the “effect on growth of Erb-B2-transformed cells” value [6] of the same molecule?
**A.** sufficient to inhibit growth

**Q.** And the “Number of cells (% of control)” value ([6]; Brb-B2 transformed 3T3, day 5)?
**A.** 36 % of control

**Q.** And the “effect on growth of T-antigen-transformed cells” value [7]?
**A.** no effects

**Q.** What about the “Number of cells (% of control)” value ([7]; Y-antigen transformed CHO, day 5) of the same molecule?
**A.** 99 ± 9 % of control

**Q.** And the “effect on tumor growth” value ([8]; 1.6 mg/kg every other day, FIG. 13)?
**A.** inhibitory effects

**Q.** And the “mice out of 8 that developed tumors of 2 cm2 or less” value ([8]; 3.6 mg/kg daily, systemic s.c.)?
**A.** 6

**Q.** And the “mice out of 8 that developed tumors of greater than 4 cm2” value ([8]; 3.6 mg/kg daily, systemic s.c.)?
**A.** 2

**Q.** And the “effect on tumor growth” value ([8]; 3.6 mg/kg daily, systemic s.c., FIG. 12)?
**A.** profound inhibition of tumor growth
